Experimental data reported in patent US4479943A, “3-Demethoxyistamycin B, the 2"-N-formimidoyl derivative thereof and pharmaceutical composition containing same” (Zaidan Hojin Biseibutsu Kagaku Kenkyu Kai, priority 1982, dated 1984).

Columns and labels:
[1] = system: Pseudomonas aeruginosa GN315; assay: Antibacterial MIC, standard serial dilution; assay type: cell-based; conditions: nutrient agar, 37° C., 17 hours, as free base
[2] = system: Escherichia coli K-12 R388; assay: Antibacterial MIC, standard serial dilution; assay type: cell-based; conditions: nutrient agar, 37° C., 17 hours, as free base
[3] = system: Staphylococcus aureus Smith; assay: Antibacterial MIC, standard serial dilution; assay type: cell-based; conditions: nutrient agar, 37° C., 17 hours, as free base
[4] = system: Bacillus subtilis PCI 219; assay: Antibacterial MIC, standard serial dilution; assay type: cell-based; conditions: nutrient agar, 37° C., 17 hours, as free base
Escherichia coli K-12 R5 = assay: Antibacterial MIC, standard serial dilution; assay type: cell-based; conditions: nutrient agar, 37° C., 17 hours, as free base
[5] = system: Pseudomonas maltophilia GN 907; assay: Antibacterial MIC, standard serial dilution; assay type: cell-based; conditions: nutrient agar, 37° C., 17 hours, as free base
Providencia sp. Pv16 = assay: Antibacterial MIC, standard serial dilution; assay type: cell-based; conditions: nutrient agar, 37° C., 17 hours, as free base
[6] = system: Staphylococcus epidermidis 109; assay: Antibacterial MIC, standard serial dilution; assay type: cell-based; conditions: nutrient agar, 37° C., 17 hours, as free base
[7] = system: Staphylococcus aureus Ap01; assay: Antibacterial MIC, standard serial dilution; assay type: cell-based; conditions: nutrient agar, 37° C., 17 hours, as free base
[8] = system: Escherichia coli K-12 C600 R135; assay: Antibacterial MIC, standard serial dilution; assay type: cell-based; conditions: nutrient agar, 37° C., 17 hours, as free base
Bacillus anthracis = assay type: cell-based; conditions: nutrient agar, 37° C., 17 hours, as free base
[9] = system: Shigella dysenteriae JS11910; assay: Antibacterial MIC, standard serial dilution; assay type: cell-based; conditions: nutrient agar, 37° C., 17 hours, as free base
[10] = system: Pseudomonas aeruginosa ROS 134/PU21; assay: Antibacterial MIC, standard serial dilution; assay type: cell-based; conditions: nutrient agar, 37° C., 17 hours, as free base
Sarcina lutea PCI 1001 = assay: Antibacterial MIC, standard serial dilution; assay type: cell-based; conditions: nutrient agar, 37° C., 17 hours, as free base
Escherichia coli K-12 = assay: Antibacterial MIC, standard serial dilution; assay type: cell-based; conditions: nutrient agar, 37° C., 17 hours, as free base
[11] = system: Pseudomonas aeruginosa No. 12; assay: Antibacterial MIC, standard serial dilution; assay type: cell-based; conditions: nutrient agar, 37° C., 17 hours, as free base
[12] = system: Pseudomonas aeruginosa B-13; assay: Antibacterial MIC, standard serial dilution; assay type: cell-based; conditions: nutrient agar, 37° C., 17 hours, as free base
mice = assay: Acute toxicity, intravenous administration in mice; assay type: in vivo
[13] = system: Klebsiella pneumoniae 22#3038; assay: Antibacterial MIC, standard serial dilution; assay type: cell-based; conditions: nutrient agar, 37° C., 17 hours, as free base
Proteus vulgaris 0X19 = assay: Antibacterial MIC, standard serial dilution; assay type: cell-based; conditions: nutrient agar, 37° C., 17 hours, as free base
Serratia sp. SOU = assay: Antibacterial MIC, standard serial dilution; assay type: cell-based; conditions: nutrient agar, 37° C., 17 hours, as free base
[14] = system: Mycobacterium smegmatis ATCC 607; assay: Antibacterial MIC, standard serial dilution; assay type: cell-based; conditions: nutrient agar, 37° C., 17 hours, as free base
Serratia marcescens = assay: Antibacterial MIC, standard serial dilution; assay type: cell-based; conditions: nutrient agar, 37° C., 17 hours, as free base
[15] = system: Bacillus subtilis NRRL B-558; assay: Antibacterial MIC, standard serial dilution; assay type: cell-based; conditions: nutrient agar, 37° C., 17 hours, as free base
[16] = system: Escherichia coli K-12 J5R11-2; assay: Antibacterial MIC, standard serial dilution; assay type: cell-based; conditions: nutrient agar, 37° C., 17 hours, as free base
[17] = system: Micrococcus flavus FDA 16; assay: Antibacterial MIC, standard serial dilution; assay type: cell-based; conditions: nutrient agar, 37° C., 17 hours, as free base
[18] = system: Staphylococcus aureus FDA 209P; assay: Antibacterial MIC, standard serial dilution; assay type: cell-based; conditions: nutrient agar, 37° C., 17 hours, as free base
[19] = system: Pseudomonas aeruginosa PST1; assay: Antibacterial MIC, standard serial dilution; assay type: cell-based; conditions: nutrient agar, 37° C., 17 hours, as free base
[20] = system: Pseudomonas aeruginosa 21-75; assay: Antibacterial MIC, standard serial dilution; assay type: cell-based; conditions: nutrient agar, 37° C., 17 hours, as free base
[21] = system: Pseudomonas aeruginosa H9; assay: Antibacterial MIC, standard serial dilution; assay type: cell-based; conditions: nutrient agar, 37° C., 17 hours, as free base
Proteus rettgeri GN311 = assay: Antibacterial MIC, standard serial dilution; assay type: cell-based; conditions: nutrient agar, 37° C., 17 hours, as free base
[22] = system: Pseudomonas aeruginosa 99; assay: Antibacterial MIC, standard serial dilution; assay type: cell-based; conditions: nutrient agar, 37° C., 17 hours, as free base
[23] = system: Escherichia coli K-12 LA290 R64; assay: Antibacterial MIC, standard serial dilution; assay type: cell-based; conditions: nutrient agar, 37° C., 17 hours, as free base
Salmonella typhi T-63 = assay: Antibacterial MIC, standard serial dilution; assay type: cell-based; conditions: nutrient agar, 37° C., 17 hours, as free base
[24] = system: Pseudomonas aeruginosa K-Ps 102; assay: Antibacterial MIC, standard serial dilution; assay type: cell-based; conditions: nutrient agar, 37° C., 17 hours, as free base
Serratia sp. 4 = assay: Antibacterial MIC, standard serial dilution; assay type: cell-based; conditions: nutrient agar, 37° C., 17 hours, as free base
[25] = system: Pseudomonas aeruginosa A3; assay: Antibacterial MIC, standard serial dilution; assay type: cell-based; conditions: nutrient agar, 37° C., 17 hours, as free base
Escherichia coli W677 = assay: Antibacterial MIC, standard serial dilution; assay type: cell-based; conditions: nutrient agar, 37° C., 17 hours, as free base
[26] = system: Escherichia coli K-12 ML1410; assay: Antibacterial MIC, standard serial dilution; assay type: cell-based; conditions: nutrient agar, 37° C., 17 hours, as free base
Escherichia coli JR225 = assay: Antibacterial MIC, standard serial dilution; assay type: cell-based; conditions: nutrient agar, 37° C., 17 hours, as free base
Providencia sp. 2991 = assay: Antibacterial MIC, standard serial dilution; assay type: cell-based; conditions: nutrient agar, 37° C., 17 hours, as free base
[27] = system: Corynebacterium bovis 1810; assay: Antibacterial MIC, standard serial dilution; assay type: cell-based; conditions: nutrient agar, 37° C., 17 hours, as free base
[28] = system: Pseudomonas aeruginosa H11; assay: Antibacterial MIC, standard serial dilution; assay type: cell-based; conditions: nutrient agar, 37° C., 17 hours, as free base
[29] = system: Escherichia coli K-12 LA290 R55; assay: Antibacterial MIC, standard serial dilution; assay type: cell-based; conditions: nutrient agar, 37° C., 17 hours, as free base
[30] = system: Pseudomonas aeruginosa TI-13; assay: Antibacterial MIC, standard serial dilution; assay type: cell-based; conditions: nutrient agar, 37° C., 17 hours, as free base
[31] = system: Escherichia coli K-12 LA290 R56; assay: Antibacterial MIC, standard serial dilution; assay type: cell-based; conditions: nutrient agar, 37° C., 17 hours, as free base
[32] = system: Escherichia coli K-12 ML1630; assay: Antibacterial MIC, standard serial dilution; assay type: cell-based; conditions: nutrient agar, 37° C., 17 hours, as free base
[33] = system: Escherichia coli JR66/W677; assay: Antibacterial MIC, standard serial dilution; assay type: cell-based; conditions: nutrient agar, 37° C., 17 hours, as free base
[34] = system: Escherichia coli K-12 ML1410 R81; assay: Antibacterial MIC, standard serial dilution; assay type: cell-based; conditions: nutrient agar, 37° C., 17 hours, as free base
[35] = system: Bacillus cereus ATCC 10702; assay: Antibacterial MIC, standard serial dilution; assay type: cell-based; conditions: nutrient agar, 37° C., 17 hours, as free base
[36] = system: Escherichia coli K-12 ML1629; assay: Antibacterial MIC, standard serial dilution; assay type: cell-based; conditions: nutrient agar, 37° C., 17 hours, as free base
Proteus rettgeri GN466 = assay: Antibacterial MIC, standard serial dilution; assay type: cell-based; conditions: nutrient agar, 37° C., 17 hours, as free base
[37] = system: Klebsiella pneumoniae PCI602; assay: Antibacterial MIC, standard serial dilution; assay type: cell-based; conditions: nutrient agar, 37° C., 17 hours, as free base
Escherichia coli NIHJ = assay: Antibacterial MIC, standard serial dilution; assay type: cell-based; conditions: nutrient agar, 37° C., 17 hours, as free base
[38] = system: Salmonella enteritidis 1891; assay: Antibacterial MIC, standard serial dilution; assay type: cell-based; conditions: nutrient agar, 37° C., 17 hours, as free base

CNCC1CCC(N)C(OC2C(N)CCC(N(C)C(=O)CNC=N)C2O)O1.O.O.O.O.O=S(=O)(O)O.O=S(=O)(O)O (centres unmarked) [DBF, 3-demethoxy-2"-N-formimidoylistamycin B]
low toxicity: acute toxicity (mice; mice, intravenous, in words)
> 100 µg/mL: MIC [5] | MIC [12] | MIC [22]
< 0.20 µg/mL: MIC [3] | MIC (Proteus vulgaris 0X19) | MIC [15] | MIC [27] | MIC (Proteus rettgeri GN466)
100 mg/kg: tolerated dose (all treated mice) (mice; mouse, in vivo, iv, 336 h)
25 µg/mL: MIC [11] | MIC [19] | MIC [21] | MIC [24]
6.25 µg/mL: MIC [8]
12.5 µg/mL: MIC (Serratia sp. SOU) | MIC (Serratia sp. 4) | MIC [30]
100 µg/mL: MIC [10]
0.78 µg/mL: MIC (Escherichia coli K-12 R5) | MIC (Providencia sp. Pv16) | MIC (Serratia marcescens) | MIC [16] | MIC [23] | MIC [29] | MIC [37]
0.20 µg/mL: MIC [4] | MIC [6] | MIC (Escherichia coli NIHJ)
1.56 µg/mL: MIC [9] | MIC [13] | MIC [26] | MIC (Providencia sp. 2991) | MIC [32] | MIC [35] | MIC [38]
50 µg/mL: MIC [1] | MIC [20] | MIC [28]
0.39 µg/mL: MIC [2] | MIC [7] | MIC (Bacillus anthracis) | MIC (Sarcina lutea PCI 1001) | MIC (Escherichia coli K-12) | MIC [14] | MIC [17] | MIC [18] | MIC (Proteus rettgeri GN311) | MIC (Salmonella typhi T-63) | MIC [25] | MIC (Escherichia coli W677) | MIC (Escherichia coli JR225) | MIC [31] | MIC [33] | MIC [34] | MIC [36]
